The record followed here is paper PMC10976160, “Comparative Pharmacokinetics Research of 13 Bioactive Components of Jieyu Pills in Control and Attention Deficit Hyperactivity Disorder Model Rats Based on UPLC-Orbitrap Fusion MS” (Molecules, 2024).

Like-named read-outs stand apart in the source and are kept apart here. Bounds are passed on as bounds.

Data set [1] is described as follows: Pharmacokinetics in control rats after gavage of JYPs. The conditions noted are these: for half-life / Tmax / AUC(0-inf) / AUC(0-t) / Cmax / MRT last / MRT inf: male, rat, plasma; for Tmax: po; for MRT last: read-out: MRT(0-t); for MRT inf: read-out: MRT(0-∞). The data set is classed as in vivo, Sprague Dawley (SD) rats. The text has this:
According to the established method for the analysis of serum biological samples, the pharmacokinetics of various components of rat serum were investigated after the administration of different dosages of JYPs to control rats.
(§1) For the control experiment, healthy male Sprague Dawley (SD) rats of SPF grade ([…] ± 20 g) were purchased from Sipeifu (Beijing) Biotechnology Co., Ltd. (Beijing, China), Animal Quality Certificate No. 110324220102348616. For the ADHD model rats, healthy male SHR rats of SPF grade, weighing 220 ± 20 g, were purchased from SBF (Beijing) Biotechnology Co., Ltd. (Beijing, China), License No. SCXK (Yu) 2019-0010. The animals were accommodated in the Animal Center of Henan University of Traditional Chinese Medicine, which successfully underwent an ethical audit with ethics number DWLL202208003. The animals were bred under controlled conditions at a temperature of 24 °C and a relative humidity of 50 ± 2%. Before the experiment, the animals abstained from eating for 12 h and had unrestricted access to water. The feeding and experimental research conducted on the experimental animals adhered to the laws outlined in the Management of Experimental Animals in Henan Province.
(§2) JYPs were ground into a fine powder and sieved through 60-mesh sieves; then, 20 g of fine JYP powder was taken, having been weighed precisely. A precise volume of 50 mL of pure water was added and mixed well to prepare a 0.4 g/mL suspension solution of JYPs, which was then stored in the refrigerator at 4 °C.
(§3) This study involved 24 healthy male SD rats with a body mass of 220 ± 20 g and 24 healthy male ADHD rats with a body mass of 220 ± 20 g. Subjects abstained from food for a duration of 12 h before the experiment and consumed water without restriction. Both kinds of rats were randomly divided into four groups: a blank group, given an equal dose of water intragastrically, and 3 different administration groups: rats given the equivalent human dose of JYPs by gavage in doses of 1.080 g/kg/d, 2.160 g/kg/d, and 4.320 g/kg/d. Tail vein blood was collected at 0.083, 0.25, 0.5, 0.75, 1, 1.5, 2, 3, 4, 6, 8, 12, 18, and 24 h after dosing. About 0.5 mL of blood was collected in sodium heparin centrifugal tubes, then centrifuged at 4 °C for 10 min at a speed of 3500r/min. We took the upper layer and placed it at −80 °C for preservation.
(§4) We took 200 μL of plasma, added 600 μL of methanol solution and 50 μL of internal standard (100 ng/mL), and subjected it to shaking for 5 min, followed by centrifugation at 4 °C at 12,000 r/min for 10 min. The supernatant was collected and allowed to dry, then reconstituted with 50 μL of 50% methanol and centrifuged at 4 °C at 14,000 r/min for a further 10 min. The supernatant after this process was taken as the test solution. A volume of 5 μL was used for UPLC-MS analysis. The drug concentration in plasma was calculated with the aid of the internal standard.
Chromatographic conditions: Hypersil GOLD (100 × 2.1 mm, 1.9 μm) column; column temperature 35 °C; mobile phase acetonitrile (A)/0.1% formic acid aqueous solution (B); gradient elution; gradient elution program: 0–0.5 min (95% B–95% B), 0.5–8 min (95% B–50% B), 8–14 min (50% B–20% B), 14–20 min (20% B–5% B), 20–22 min (5% B–5% B), 22–25 min (95% B–95% B); flow rate 0.2 mL/min; injection volume 5 μL.

Data set [2] in a line: Pharmacokinetics in ADHD model rats after gavage of JYPs. The data set is classed as in vivo, SHR rats (ADHD model). Conditions: for peak time / half-life: ADHD model rats, oral JYPs; for half-life: male, SHR, plasma; for removed within 12 h: ADHD rats (as printed, in the control-group section). The method, then:
Based on the established analytical method for plasma samples, a pharmacokinetic study was conducted on 13 constituents in the plasma of ADHD model rats after gavage of JYPs (Figure 3). The linearity of ln(AUC0-t)–ln(dose) and ln(Cmax)–ln(dose) was analyzed in the same way.
as §1, §2, §3, §4
Chromatographic conditions: Hypersil GOLD (100 × 2.1 mm, 1.9 μm) column; column temperature 35 °C; mobile phase acetonitrile (A)/0.1% formic acid aqueous solution (B); gradient elution; gradient elution program: 0–0.5 min (95% B–95% B), 0.5–8 min (95% B–50% B), 8–14 min (50% B–20% B), 14–20 min (20% B–5% B), 20–22 min (5% B–5% B), 22–25 min (95% B–95% B); flow rate 0.2 mL/min; injection volume 5 μL. The ion source was electrospray ionization (ESI), with positive and negative ion mode spray voltages of 3.50 and 3.0 kV, an ion transfer tube temperature of 300 °C, nitrogen as the carrier gas, a sheath gas pressure of 35 arb, an auxiliary gas pressure of 8 arb, and an auxiliary heater temperature of 275 °C.

The mark [3] stands for this setting: Sprague Dawley, oral JYPs, range over compounds and doses, read-out: half-life (t1/2).
[4] abbreviates: Sprague Dawley, oral JYPs, read-out: peak time (Tmax).
The mark [5] stands for this setting: Sprague-Dawley, 1.08 g/kg/day, oral JYPs low dose 1.080 g/kg/d (1st of 3 values).
Where [6] appears, read: Sprague-Dawley, 2.16 g/kg/day, oral JYPs medium dose 2.160 g/kg/d (2nd of 3 values).
[7] abbreviates: Sprague-Dawley, 4.32 g/kg/day, oral JYPs high dose 4.320 g/kg/d (3rd of 3 values).
[8] abbreviates: oral JYPs high dose 4.320 g/kg/d (3rd of 3 values).
Setting [9] is: oral JYPs low dose 1.080 g/kg/d (1st of 3 values).
[10] abbreviates: oral JYPs medium dose 2.160 g/kg/d (2nd of 3 values).

With `COc1cc(/C=C/C(=O)O)ccc1O` [Ferulic acid], the half-life in data set [1] (setting [3]) fell in the range of 9.53 to 16.8 h. Moreover, in data set [1] (setting [4]), the Tmax (in general, the time from dosing to the highest level) is under 1 h.
On to `O=C1C[C@@H](c2ccc(O[C@@H]3O[C@H](CO)[C@@H](O)[C@H](O)[C@H]3O)cc2)Oc2cc(O)ccc21` [Liquiritin], for which the half-life in data set [1] (setting [3]) lay in the range of 9.53 to 16.8 h. In addition, the Tmax in data set [1] (setting [4]) is under 1 h. The peak time entry in data set [2] is “less than 1 h”.
As to `C=C(C)[C@@H]1CC=C2C(=CC[C@]3(C)[C@@H]([C@@H](CCC=C(C)C)C(=O)O)[C@H](O)C[C@@]23C)[C@@]1(C)CCC(=O)O` [Poricoic acid B], the half-life was 7.61 to 12.2 h in data set [1] (setting [3]) and under 10.3 h in data set [2] (rat). For the same molecule, the Tmax in data set [1] (setting [4]) was under 4 h. In addition, the peak time entry in data set [2] is given as “less than 4 h”. Also, the “t1/2, pathological condition compared with control rats” value in data set [2] (rat, in vivo) is “shorter”.
Consider `CCCC=C1OC(=O)C2=C1CCC1C3C=C4C(=O)OC(=CCCC)C4(CC3)C21` (stereo not shown) [Levistilide A], for which the half-life is 14.4 to 24 h in data set [1] (setting [3]); 14.4 ± 4.36 h in data set [1] (Sprague-Dawley, 1.08 g/kg/day, oral JYPs low dose 1.080 g/kg/d (1st of 3 values), read-out: t1/2 (converted)); 16.4 ± 7.3 h in data set [1] (Sprague-Dawley, 2.16 g/kg/day, oral JYPs medium dose 2.160 g/kg/d (2nd of 3 values), read-out: t1/2 (converted)); 22.1 ± 26.9 h in data set [1] (Sprague-Dawley, 4.32 g/kg/day, oral JYPs high dose 4.320 g/kg/d (3rd of 3 values), read-out: t1/2 (converted)). Besides, the Tmax in data set [1] (setting [4]) is under 2 h; in data set [1] (Sprague-Dawley, 1.08 g/kg/day, oral JYPs low dose 1.080 g/kg/d (1st of 3 values), read-out: Tmax), 1.17 ± 0.41 h; in data set [1] (Sprague-Dawley, 2.16 g/kg/day, oral JYPs medium dose 2.160 g/kg/d (2nd of 3 values), read-out: Tmax), 0.92 ± 0.13 h; in data set [1] (Sprague-Dawley, 4.32 g/kg/day, oral JYPs high dose 4.320 g/kg/d (3rd of 3 values), read-out: Tmax), 1.67 ± 0.52 h. In addition, the values for the AUC(0-inf) in data set [1] (setting [5]), in data set [1] (setting [6]) and in data set [1] (setting [7]) were 25.2 ± 7.16 ng·h/mL, 34.2 ± 5.08 ng·h/mL and 59.8 ± 23.1 ng·h/mL, respectively. For the same molecule, the AUC(0-t) (in general, exposure summed from dosing to a finite time, without extrapolation to infinity) in data set [1] (setting [5]) stood at 12.9 ± 4.96 ng·h/mL; in data set [1] (setting [6]), 21.5 ± 2.97 ng·h/mL; in data set [1] (setting [7]) it was 36.7 ± 11.3 ng·h/mL. In addition, the Cmax (commonly the maximum level reached in the sampled fluid or tissue) in data set [1] (setting [5]) worked out at 1.79 ± 0.66 ng/mL; in data set [1] (setting [6]), 2.86 ± 0.52 ng/mL; in data set [1] (setting [7]), 4.6 ± 2.01 ng/mL. Moreover, the MRT last in data set [1] (setting [5]) was determined as 9.51 ± 1.01 h; in data set [1] (setting [6]) it was 9.23 ± 0.46 h; in data set [1] (setting [7]) it was 8.92 ± 1.16 h. Besides, the results for the MRT inf in data set [1] (setting [5]), in data set [1] (setting [6]) and in data set [1] (setting [7]) were 22.9 ± 7.04 h, 24.1 ± 8.96 h and 31.2 ± 38.1 h, respectively. In addition, the “AUMC(0-t)” value in data set [1] (setting [8]) is given as 323.93± 97.01 ng/mL*(h)²; in data set [1] (setting [9]), 150.01± 45.26 ng/mL*(h)²; in data set [1] (setting [10]), 197.79±26.58 ng/mL*(h)². The results for the “AUMC(0-ꝏ)” value in data set [1] (setting [8]), in data set [1] (setting [9]) and in data set [1] (setting [10]) were 2493.49± 4004.18 ng/mL*(h)², 584.44± 254.39 ng/mL*(h)² and 849.62± 407.65 ng/mL*(h)², respectively. Moreover, the results for the Clearances in data set [1] (setting [8]), in data set [1] (setting [9]) and in data set [1] (setting [10]) were 1455.57 ± 663.81 mL/h, 794.02 ± 199.77 mL/h and 1123.37 ± 161.30 mL/h, respectively. Moreover, the Vss was 33463.62 ± 24837.03 mL in data set [1] (setting [8]), 17878.07 ± 6212.70 mL in data set [1] (setting [9]) and 26341.48 ± 7666.95 mL in data set [1] (setting [10]).
Take `O=C1C[C@@H](c2ccc(O)cc2)Oc2cc(O)ccc21` [Liquiritigenin]: the half-life in data set [1] (setting [3]) was 9.53 to 16.8 h. Besides, the Tmax in data set [1] (setting [4]) is under 1 h. Moreover, in data set [2], the peak time entry is on record as “less than 1 h”. In addition, the “AUC(0-t), ADHD rats compared with control rats” value in data set [2] (all dosages) is “significantly lower”.
As for `CC12CC(O)C3CC1(OC1OC(CO)C(O)C(O)C1O)C3(COC(=O)c1ccccc1)C(=O)O2` (stereo not shown) [Albiflorin], in data set [2], the peak time result is “less than 1 h” and the “removed within 12 h” value is given as “approximately 80%”. Moreover, the “Tmax, model rats compared with control rats” value in data set [2] (high-dose group) is listed as “significantly shorter”. In addition, in data set [2] (middle- and high-dose administration groups), the “Cmax, model rats compared with control rats” value is “significantly greater”.
Take `C[C@@]12C[C@@]3(O)O[C@@H](O1)[C@]1(COC(=O)c4ccccc4)[C@H]3C[C@@]12O[C@@H]1O[C@H](CO)[C@@H](O)[C@H](O)[C@H]1O` [Paeoniflorin]: the Tmax in data set [1] (setting [4]) is under 1 h. Also, in data set [2], the peak time entry was “less than 1 h” and the “removed within 12 h” value was “approximately 80%”.
As to `C=C(CC[C@@H](C(=O)O)[C@H]1[C@H](O)C[C@@]2(C)C3=CC[C@@H](C(=C)C)[C@](C)(CCC(=O)O)C3=CC[C@]12C)C(C)C` [Poricoic acid A], the half-life in data set [1] (setting [3]) was 7.61 to 12.2 h; in data set [2] (rat), under 10.3 h. The Tmax in data set [1] (setting [4]) was under 4 h. Further, the peak time entry in data set [2] was “less than 4 h”. In data set [2] (rat, in vivo), the “Cmax, ADHD rats compared with control rats” value is “significantly higher”.
